Results taken from patent US12600732B2, “Bifunctional compounds for degrading BTK via ubiquitin proteosome pathway” (NURIX THERAPEUTICS, INC., priority 2019, dated 2026).

Assays:
[1] = system: TMD8 cells; assay: Cell viability assay (CellTiter-Glo), TMD8 cells; conditions: for EC50: Homo sapiens, TMD8, 72 h; for EMAX (% viable cells): TMD8 cells, treatment time 72 h
Procedure: (§2) Cell viability was determined using CellTiter-Glo 2.0 Luminescent Cell Viability Assay (Promega, G9242), which quantitates the amount of ATP present as a proxy for the number of viable cells in culture. Cells were plated with densities between 2000-4000 cells per well in 96-well plates. […] CellTiter-Glo reagent was added to cells at a dilution of 1:20, and the plate was incubated ten minutes at room temperature prior to reading the luminescence signal using an EnVision plate reader. Controls included cells treated with DMSO and wells that contained no cells, only media. Background luminescence signal was determined by control wells containing no cells, only media, and was then subtracted from all sample wells. Luminescence values were then normalized to DMSO-treated wells and reported at proportion viable cells.
Here, the ability of CTMs to affect viability in BTK-dependent cell lines was assessed.

[2] = system: TMD8 C481S cells; assay: Cell viability assay (CellTiter-Glo), TMD8 C481S cells; conditions: for EC50: Homo sapiens, TMD8, 72 h; for EMAX (% viable cells): TMD8 C481S cells, treatment time 72 h
Procedure: as §2

[3] = molecular target: T1, BTK (Mus musculus, UniProt P35991); assay: In vivo degradation of BTK in mouse PD experiments with oral dosing; conditions: 6 h
T1 construct: from tissue; host or cells: mouse blood B cells / splenocytes (CD-1 or BALB/c)
Procedure: A method of determining the pharmacodynamic profile of BTK degraders was performed by dosing either CD-1 or BALB/c mice with CTM. The CTM was prepared in a suitable formulation and was administered via oral gavage (PO) at a suitable dose level and frequency as informed by prior pharmacokinetic and tolerability studies. Following administration of CTM, BTK levels in blood or splenocytes are measured using flow cytometry or HTRF. For assessment of BTK levels via flow cytometry, either whole blood or splenocytes were first treated with ACK RBC lysis buffer to facilitate lysing of red blood cells. Remaining cells were then stained with fluorophore-conjugated antibodies against CD45, TCR beta and CD45R (B220). Cell pellets were washed with 1×PBS, fixed, and permeabilized for twenty-four hours with Foxp3/Transcription Factor Fixation/Permeabilization Kit. Cells were then stained intracellularly with unconjugated BTK antibody and detected with a fluorophore-conjugated secondary antibody. Stained cells were run on an Attune N×T Acoustic Focusing Flow Cytometer (Thermo-Fisher A29004), and data was analyzed using FlowJo (v10.5.3) and GraphPad Prism (v7.00) software. Lymphocytes were gated for B cells defined as CD45+ TCR beta−B220+ and T cells as CD45+ TCR beta+B220−. The BTK geometric mean fluorescence intensity (MFI) was calculated for B and T cells. Percent BTK degradation for each compound-treated sample was calculated using the equation described below: % Degradation=100*(Treated sample B cell BTK MFI-treated sample T cell BTK MFI)/Vehicle B cell BTK MFI-Vehicle T cell BTK MFI)
This example evaluates in vivo activity of BTK CTMs via a direct mouse PD measurement following oral dosing
Screens were completed at 90 mg/kg for six hours, and then changed to lower doses/longer time points after seeing strong BTK degradation activity with an initial set of compounds. This assay was useful in selecting compounds for in vivo efficacy experiments.

[4] = system: primary human T cells; assay: T cell activation assay, IL-2 secretion (ELISA); assay type: cell-based
Procedure: (§1) This example evaluates whether CTMs with IMiD activity affect T cell activation. […] These assays were performed to assess whether BTK CTMs with and without IMiD activity affected activation of primary human T cells after stimulation of the T cell receptor with anti-CD3/ati-CD28 stimulation. T cell activation was measured by IL-2 secretion (ELISA assay) and upregulation of activation markers CD25 and CD69 on the surface of T cells (flow cytometry). Data are presented as the fold-change of response relative to baseline (stimulation with anti-CD3/anti-CD28 stimulation in the absence of compound).

[5] = system: primary human T cells; assay: T cell activation assay, CD25 and CD69 staining (flow cytometry); assay type: cell-based; conditions: for CD25 Staining Anti-CD3/Anti-CD28 Stimulation / CD69 Staining Anti-CD3/Anti-CD28 Stimulation: fold-change of response relative to baseline
Procedure: as §1

[6] = oral dose 3 mg/kg, blood, flow cytometry
[7] = 1.4 nM, fold-change of response relative to baseline
[8] = 37 nM, fold-change of response relative to baseline
[9] = 333 nM, fold-change of response relative to baseline (stimulation without compound)
[10] = oral dose 90 mg/kg, splenocytes, HTRF

T1 sequence (P35991 whole entry): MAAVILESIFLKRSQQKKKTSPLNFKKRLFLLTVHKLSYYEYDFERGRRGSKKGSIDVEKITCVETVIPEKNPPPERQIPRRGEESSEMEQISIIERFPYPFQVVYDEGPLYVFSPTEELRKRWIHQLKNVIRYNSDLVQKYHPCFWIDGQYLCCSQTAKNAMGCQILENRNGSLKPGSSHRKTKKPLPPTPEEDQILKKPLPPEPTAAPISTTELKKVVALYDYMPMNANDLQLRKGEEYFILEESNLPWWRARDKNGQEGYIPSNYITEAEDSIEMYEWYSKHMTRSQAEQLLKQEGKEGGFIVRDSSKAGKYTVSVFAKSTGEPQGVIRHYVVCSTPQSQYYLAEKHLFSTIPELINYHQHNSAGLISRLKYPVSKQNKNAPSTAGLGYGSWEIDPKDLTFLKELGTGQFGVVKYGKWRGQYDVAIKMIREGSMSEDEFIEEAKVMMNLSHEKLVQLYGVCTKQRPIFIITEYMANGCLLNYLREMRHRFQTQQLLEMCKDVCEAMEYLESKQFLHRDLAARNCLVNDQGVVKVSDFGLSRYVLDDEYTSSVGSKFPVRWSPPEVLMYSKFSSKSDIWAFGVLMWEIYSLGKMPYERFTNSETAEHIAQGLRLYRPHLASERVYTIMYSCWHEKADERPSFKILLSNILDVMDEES

SMILES | % BTK Remaining [3, 6] [%] | % BTK Remaining [3, 10] [%] | EC50 [1] [nM] | EMAX (% viable cells) [1] [%] | EC50 [2] [nM] | EMAX (% viable cells) [2] [%] | IL-2 Secretion Anti-CD3/Anti-CD28 Stimulation [4, 7] | IL-2 Secretion Anti-CD3/Anti-CD28 Stimulation [4, 8] | IL-2 Secretion Anti-CD3/Anti-CD28 Stimulation [4, 9] | IL-2 secretion compared to baseline (anti-CD3/anti-CD28 stimulation alone) ([4]; primary human T cells) | CD25 Staining Anti-CD3/Anti-CD28 Stimulation ([5]; 1.4 nM) | CD69 Staining Anti-CD3/Anti-CD28 Stimulation ([5]; 1.4 nM) | CD25 Staining Anti-CD3/Anti-CD28 Stimulation ([5]; 37 nM) | CD69 Staining Anti-CD3/Anti-CD28 Stimulation ([5]; 37 nM) | CD25 Staining Anti-CD3/Anti-CD28 Stimulation ([5]; 333 nM) | CD69 Staining Anti-CD3/Anti-CD28 Stimulation ([5]; 333 nM) | expression of CD25 and CD69 compared to baseline (anti-CD3/anti-CD28 stimulation alone) ([5]; primary human T cells)
Nc1cccc2c1CN(C1CCC(=O)NC1=O)C2=O (stereo not drawn) [Lenalidomide, lenalidomide, reference compound] |  |  |  |  |  |  | 1.63 | 4.48 | 8.67 | induce IL-2 secretion | 1.26 | 1.20 | 1.73 | 1.49 | 1.93 | 1.81 | increase expression
CN1CCN([C@@H]2CCCN(c3cnc(C(N)=O)c(Nc4ccc(C5CCN(CCCNc6cccc7c6C(=O)N(C6CCC(=O)NC6=O)C7=O)CC5)cc4)n3)C2)C1=O (stereo partly drawn) [Compound 155] |  |  |  |  |  |  | 1.62 | 3.13 | 3.11 |  | 1.31 | 1.25 | 1.46 | 1.34 | 1.21 | 1.20 | 
CN1CCN([C@@H]2CCCN(c3cnc(C(N)=O)c(Nc4ccc(C5CCN(C[C@H]6CC[C@H](Nc7cccc8c7C(=O)N(C7CCC(=O)NC7=O)C8=O)CC6)CC5)cc4)n3)C2)C1=O (stereo partly drawn) [Compound 154] |  |  |  |  |  |  | 1.77 | 3.38 | 3.45 |  | 1.23 | 1.18 | 1.36 | 1.29 | 1.13 | 1.16 | 
CN1CCN([C@@H]2CCCN(c3cnc(C(N)=O)c(Nc4ccc(N5CCN(CC6CN(c7ccc8c(c7)C(=O)N(C7CCC(=O)NC7=O)C8=O)C6)CC5)cc4)n3)C2)C1=O (stereo partly drawn) [Compound 60] |  | 3 | 0.97 | 20 | 8.37 | 26 |  |  |  |  |  |  |  |  |  |  | 

Further lines, with some results ahead:

% BTK Remaining [3, 6] [%] | % BTK Remaining [3, 10] [%] | SMILES | EC50 [1] [nM] | EMAX (% viable cells) [1] [%] | EC50 [2] [nM] | EMAX (% viable cells) [2] [%] | IL-2 Secretion Anti-CD3/Anti-CD28 Stimulation [4, 7] | IL-2 Secretion Anti-CD3/Anti-CD28 Stimulation [4, 8] | IL-2 Secretion Anti-CD3/Anti-CD28 Stimulation [4, 9] | IL-2 secretion compared to baseline (anti-CD3/anti-CD28 stimulation alone) ([4]; primary human T cells) | CD25 Staining Anti-CD3/Anti-CD28 Stimulation ([5]; 1.4 nM) | CD69 Staining Anti-CD3/Anti-CD28 Stimulation ([5]; 1.4 nM) | CD25 Staining Anti-CD3/Anti-CD28 Stimulation ([5]; 37 nM) | CD69 Staining Anti-CD3/Anti-CD28 Stimulation ([5]; 37 nM) | CD25 Staining Anti-CD3/Anti-CD28 Stimulation ([5]; 333 nM) | CD69 Staining Anti-CD3/Anti-CD28 Stimulation ([5]; 333 nM) | expression of CD25 and CD69 compared to baseline (anti-CD3/anti-CD28 stimulation alone) ([5]; primary human T cells)
74 |  | Cn1cc(Nc2nc(N3CCC[C@@H](N4CC5(CN(CC6CCN(c7ccc8c(c7)C(=O)N(C7CCC(=O)NC7=O)C8=O)CC6)C5)OC4=O)C3)cnc2C(N)=O)cn1 (stereo partly drawn) [compound 211, 5-[(3R)-3-[2-({1-[2-(2,6-dioxopiperidin-3-yl)-1,3-dioxoisoindol-5-yl]piperidin-4-yl}methyl)-6-oxo-5-oxa-2,7-diazaspiro[3.4]octan-7-yl]piperidin-1-yl]-3-[(1-methylpyrazol-4-yl)amino]pyrazine-2-carboxamide] | 11.7 | 30 | 113 | 28 |  |  |  |  |  |  |  |  |  |  | 
 | <1 | CN1CCN([C@@H]2CCCN(c3cnc(C(N)=O)c(Nc4ccc(N5CCN(CC6CCN(c7ccc8c(c7)C(=O)N(C7CCC(=O)NC7=O)C8=O)CC6)CC5)cc4)n3)C2)C1=O (stereo partly drawn) [Compound 49] | 0.61 | 28 | 3.86 | 23 |  |  |  |  |  |  |  |  |  |  | 
 | 5 | CN1CCN([C@@H]2CCCN(c3cnc(C(N)=O)c(Nc4ccc(N5CCN(C[C@H]6CCN(c7ccc8c(c7)C(=O)N(C7CCC(=O)NC7=O)C8=O)C6)CC5)cc4)n3)C2)C1=O (stereo partly drawn) [Compound 42] | 0.217 | 40 | 1.96 | 57 |  |  |  |  |  |  |  |  |  |  | 
78 |  | Cn1cc(Nc2nc(N3CCC[C@@H](N4CC5(CN(C6CCN(c7ccc8c(c7)C(=O)N([C@H]7CCC(=O)NC7=O)C8=O)CC6)C5)OC4=O)C3)cnc2C(N)=O)cn1 [Compound 212] | 15.1 | 42 | 63 | 44 |  |  |  |  |  |  |  |  |  |  | 
